Test results taken from the METLIN SMRT retention time set (Domingo-Almenara et al. 2019).

Assay: gradient 5% acetonitrile 3 min, to 50% in 2 min, to 85% in 15 min, held 3 min, 100 µL/min
Settings: column: Zorbax Extend-C18 2.1 x 50 mm; eluents: water / acetonitrile, 0.1% formic acid
Outline: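 Mixtures of ~100 pure standards were chromatographed on a Zorbax Extend-C18 column (2.1 × 50 mm, 1.8 μm) at 100 μL/min using water and acetonitrile, each with 0.1% formic acid. Detection used a quadrupole time-of-flight mass spectrometer in positive and negative ionization mode, and data collection spanned 3 months. Retention time was obtained from adduct peaks picked computationally and each checked manually.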

| Compound | RP-LC retention time |
| --- | --- |
| CCN1CCCCc2cc(C(=O)NCC(N)=O)sc21 | 679 s |
| O=C(Nc1ccc(Nc2ccc(-n3cccn3)nn2)cc1)Nc1ccccc1Cl | 791 s |
| CNc1nc(Nc2ccc(F)cc2C)nc2ccccc12 | 678 s |
| COc1ccc2c(c1)C(OC(C)C)=C(C(N)=O)S2=O (stereo not given) | 623 s |
| CCCCN1C(=O)CN(S(=O)(=O)c2ccc(C)cc2)CC1(C)C(=O)NCc1ccccc1 (stereo not given) | 974 s |
| CCCCN(CCCNC(=O)C1CCN(S(=O)(=O)N2CCOCC2)CC1)Cc1ccccc1 | 640 s |
| CNC(=O)Cc1csc(NC(=O)c2ccc(OCC(=O)C3CC3)cc2)n1 | 631 s |
| O=C(C1CCCN(c2ncnc3c2nc2n3CCCCC2)C1)N1CCN(c2ccc(F)cc2)CC1 (stereo not given) | 829 s |
| Cc1noc(C2CN(C(=O)Nc3ccc(F)cc3F)CC23CCOCC3)n1 (stereo not given) | 695 s |
| Cc1nn(C(C)C)c(C)c1-c1cc(C(=O)O)[nH]n1 | 617 s |
| Cn1c(C(=O)Nc2ccc3c(c2)OCCO3)cc2c(=O)oc3ccccc3c21 | 910 s |
| CCOC(=O)c1[nH]c(C)c(CCC(=O)N2CCC(C(=O)NC3CCCCCC3)CC2)c1C | 823 s |
| CCOc1ccc(-n2ccn3c(CC(C)CC(=O)NC4CCCC4)nnc3c2=O)cc1 (stereo not given) | 710 s |
| CC1CCc2nn(CC(=O)NCCN3CCCCCC3)cc2C1 (stereo not given) | 605 s |
| O=C(Nc1nc(-c2ccc3ccccc3c2)cs1)c1ccc(Cl)cc1Cl | 1220 s |
| CS(=O)(=O)N1CCCC(c2nnc(-c3ccccc3F)s2)C1 (stereo not given) | 757 s |
| COc1ccccc1N1CCN(CC2CN3C(=O)N(C)c4ccccc4C3=N2)CC1 (stereo not given) | 662 s |
| CCS(=O)(=O)c1nc2ccc(NS(=O)(=O)c3cc(C)cc(C)c3)cc2s1 | 936 s |
| Cc1ccc(S(=O)(=O)N2C(=O)CCC2C(=O)N(C)C2CCCCC2)cc1C (stereo not given) | 1010 s |
| COC(=O)C1=CN(c2cccc(C#N)c2)c2ccc(F)cc2S1(=O)=O | 787 s |

| Compound | RP-LC retention time |
| --- | --- |
| CC(C)CNC(=O)c1sc2ncccc2c1-n1cccc1 | 971 s |
| COc1ccccc1CNC(=O)C1CCCN1S(=O)(=O)c1cc2c(cc1C)NC(=O)CO2 (stereo not given) | 764 s |
| O=C(NCc1ccccn1)c1c[nH]c2ncccc12 | 549 s |
| CCC(=O)N(C1CCOCC1)C1CCN(Cc2cccc(Br)c2)CC1 | 635 s |
| COC(=O)c1c(C)[nH]c(C(=O)N2CCCC(C(=O)NCCC3=CCCCC3)C2)c1C (stereo not given) | 825 s |
| CC(C)c1ccc(-c2csc(Nc3ccc(S(N)(=O)=O)cc3)n2)cc1 | 1010 s |
| CCCc1nc2ccc(CCC(=O)Nc3cc(OC)cc(OC)c3)cc2[nH]1 | 657 s |
| Cn1cc(-c2nc(C(=O)NCc3cccc(C(F)(F)F)c3)cs2)c2cccnc21 | 983 s |
| CC1CN(c2nc3c(c(=O)n(C)c(=O)n3C)n2Cc2cccc(F)c2)CC(C)O1 (stereo not given) | 885 s |
| Cc1ccc(-n2c(=O)c3c(cc(C)n3C)n(CC(=O)Nc3cc(C)ccc3C)c2=O)cc1 | 906 s |
| Cc1ccc(CNC(=O)c2cc3sccc3n2Cc2ccc(F)cc2)cc1 | 888 s |
| COC(=O)c1ccc(OC)c(Cn2cnc3c(-c4ccccc4)csc3c2=O)c1 | 988 s |
| Cc1sc(C)c(S(=O)(=O)Nc2ccccc2Cl)c1-c1cc(C(F)(F)F)on1 | 1140 s |
| Cc1nc(NCCNC(=O)c2ccc(Br)o2)cc(-n2cccn2)n1 | 673 s |
| COc1ccc(C(C)NC(=O)c2cnn3c(-c4ccc5c(c4)OCO5)ccnc23)cc1OC (stereo not given) | 875 s |
| O=C(Cc1ccccc1Br)NC1CCN(c2cc(-c3cccs3)[nH]n2)C1 (stereo not given) | 689 s |
| CCOc1cc(C(=O)NC2CCN(c3cc(-c4ccccc4)[nH]n3)C2)cc(OCC)c1OCC (stereo not given) | 822 s |
| CC1Oc2ccccc2N(CC(=O)NC2CC2)C1=O (stereo not given) | 691 s |
| Cc1nc(SCC(=O)O)n[nH]1 | 765 s |
| CCOc1ccc(S(=O)(=O)N2CCCC2C(=O)Nc2nccs2)cc1 (stereo not given) | 818 s |

Continued, values first:

| RP-LC retention time | Compound |
| --- | --- |
| 826 s | Cc1ccc(Nc2c(-c3cccc(Br)c3)nc3cccc(C)n23)cc1 |
| 873 s | COC(=O)c1ccc(Cl)cc1NC(=O)N(C)CCc1c(C)nn(C)c1C |
| 555 s | COc1cccc(C(=O)N2CCc3nc(CNC(=O)C4CCC4)n(C)c3C2)c1 |
| 797 s | Cc1ccc(C(=O)N2CC=C(C(=O)NC3CC3)CC2)cc1C |
| 750 s | CC(=O)Nc1cccc(-c2nc(-c3ccc4c(c3)oc(=O)n4C)no2)c1C |
| 652 s | CCN(CC)C(=O)c1ccc2c(c1)N(CC(=O)NCc1ccco1)C(=O)CO2 |
| 743 s | O=C(NCc1ccco1)C1CCN(c2nc3ccc(-c4cncnc4)nc3s2)CC1 |
| 647 s | COCCCNC(=O)C1CCCN(c2ccc(-c3ccc(C)c(C)c3)nn2)C1 (stereo not given) |
| 944 s | CN(CCc1noc(COc2ccc(Cl)cc2)n1)C(=O)NCc1ccccc1 |
| 957 s | CN1C(=O)c2ccccc2Oc2ccc(C(=O)NCc3ccc(Cl)cc3)cc21 |
| 898 s | COc1cccc(CNC(=O)C2(C)CCCN(C(=O)Nc3ccc(C)cc3)C2)c1 (stereo not given) |
| 610 s | O=C(O)C1CCN(c2nc3ccc(-c4cccnc4)nc3s2)CC1 |
| 780 s | CCOCCCNC(=O)C1CCN(C2=NS(=O)(=O)C(c3ccc(Cl)cc3)=C2C)CC1 |
| 623 s | O=C(O)c1ccc(-c2ccc(N3CCCCCC3)nc2)cc1 |
| 941 s | CN(C)S(=O)(=O)c1ccc(-c2nnc(C(=O)NCCC3=CCCCC3)o2)cc1 |
| 1130 s | CCOc1ccc2cccc(NC(=O)Cc3cccs3)c2n1 |
| 1240 s | CCCCn1c(=O)c2ccccc2n(Cc2nc(-c3ccccc3C)no2)c1=O |
| 773 s | Cc1cc(C2CCCN2C(=O)c2c(F)cccc2Cl)on1 (stereo not given) |
| 811 s | Cc1ccc(C(=O)N2C[C@@H]3C[C@H](NC(=O)c4ccccc4)[C@H]2C3)cc1F |
| 821 s | O=C([C@@H]1C[C@H](F)CN1C(=O)Nc1ccc(C(F)(F)F)cc1)N1CCCCC1 |
| 733 s | CCCNC(=O)C1CCCN(c2ccc(SCC(=O)Nc3cccc(CC)c3)nn2)C1 (stereo not given) |
| 886 s | COc1ccc(-c2nc3cnccn3c2Nc2ccccc2C)cc1 |
| 942 s | CCOc1cccc(-c2noc(-c3nn(-c4ccccc4)ccc3=O)n2)c1 |
| 844 s | COc1ccc(NC(=O)N2CCc3cn(C)c4cccc(c34)C2)cc1 |
| 784 s | CN(CCc1noc(-c2ccc(C(=O)N3CCCC3)cc2)n1)C(=O)c1c(F)cccc1F |

| RP-LC retention time | Compound |
| --- | --- |
| 652 s | Cc1ncsc1CN1CC(Oc2ccc(-c3noc(C4CC4)n3)cc2)C1 |
| 919 s | COc1ccc(N2CC(c3noc(-c4ccccc4)n3)CC2=O)cc1 (stereo not given) |
| 592 s | O=C(Cn1c(=O)c2cccn2c2ccc(F)cc21)NCCN1CCOCC1 |
| 657 s | COc1ccc(C2(C(=O)N3CCc4nn(C)c(=O)n4CC3)CC2)cc1 |
| 770 s | Cc1ccc(NC(=O)N2CCC(N3CCN(Cc4ccc(F)cc4)C(=O)C3=O)CC2)cc1F |
| 732 s | Cc1ccc(NC(=O)N2C[C@@H](F)C[C@H]2C(=O)N2CCCCC2)c(C)c1 |
| 800 s | Cc1cc(C)cc(NC(=O)N2CCC(N3CCN(Cc4cccc(F)c4)C(=O)C3=O)CC2)c1 |
| 1010 s | CSc1ccc(-c2nc3cnccn3c2Nc2ccc(Cl)cc2)cc1 |
| 1090 s | O=C(c1cccc2[nH]ccc12)N1CC(Oc2cccc(-c3nc(-c4ccccc4)no3)c2)C1 |
| 760 s | CC1=C(c2cccc(Cl)c2)S(=O)(=O)N=C1N1CCCN(C(=O)c2ccccn2)CC1 |
| 1260 s | Fc1ccc(-c2csc(Cc3nc(-c4ccccc4Cl)no3)n2)cc1 |
| 701 s | O=C(Nc1nnc(C2CC(=O)N(c3ccc(F)cc3)C2)o1)c1ccccc1F (stereo not given) |
| 1180 s | CCc1cc(C(=O)Nc2ccc(F)c(C)c2)nc2ccnn12 |
| 1020 s | Cc1cccc(-n2c(N3CCCC(C(=O)NCc4ccc(C)c(C)c4)C3)nc3ccsc3c2=O)c1 (stereo not given) |
| 698 s | CS(=O)(=O)N(Cc1ccncc1)C1CN(C(=O)c2ccc3ncccc3c2)C1 |
| 585 s | Cc1nc2ccn(Cc3ccco3)c(=O)c2cc1C(=O)NCCN1CCOCC1 |
| 930 s | COc1ccc(Cl)cc1NC(=O)NCC(=O)N1CCc2ccccc21 |
| 955 s | COc1cccc(-c2ccc(=O)n(CCc3nc(-c4cc(OC)cc(OC)c4)no3)n2)c1 |
| 1090 s | Cc1ccc(N2CC(c3noc(-c4cccc(Cl)c4)n3)CC2=O)cc1 (stereo not given) |
| 1110 s | CCCN1C(=O)c2cc(S(=O)(=O)Nc3ccc(Cl)cc3)ccc2Oc2cccnc21 |
| 915 s | Cc1ccsc1C(=O)NCCC1CCN(C(=O)Nc2cc(F)cc(F)c2)CC1 |
| 687 s | CC(NC(=O)c1ccc2ncnc(N3CCCCC3)c2c1)c1ccc(F)cc1 (stereo not given) |
| 801 s | O=S(=O)(Nc1ccc(F)cc1)c1cccnc1N1CCOCC1 |
| 687 s | Cc1c2cnn(-c3ccccc3)c(=O)c2c(C)n1CCCC(=O)NCC1CCCO1 (stereo not given) |
| 569 s | Cc1ccc(NC(=O)CN2CCC(C(=O)N3CCN(C(=O)c4ccco4)CC3)CC2)cc1 |
